Reference: US20100003191A1, “AURONE DERIVATIVE-CONTAINING COMPOSITION FOR DIAGNOSIS” (NAGASAKI UNIVERSITY, priority 2006, published 2010)

Experiments:
Ab(1-42) aggregates = target: T1, Ab(1-42) aggregates (Homo sapiens, UniProt P05067); assay: Binding inhibition experiment using Ab(1-42) aggregates, inhibition constants (Ki), radioligand [125I](Z)-2-(4-aminobenzylidene)-5-iodobenzofuran-3(2H)-one (Table 14); settings: Aβ42 aggregates
T1 construct: Ab(1-42) was dissolved in 10 mM phosphate buffer containing 1 mM EDTA (pH 7.4)
T1 sequence (P05067 672-713 limits assumed): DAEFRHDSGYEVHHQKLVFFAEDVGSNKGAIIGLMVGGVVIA
Procedure: Ab(1-42) was dissolved in 10 mM phosphate buffer containing 1 mM EDTA (pH 7.4) to give a concentration of 0.25 mg/mL, and the mixture was incubated at 37° C. for 42 h to thereby prepare Ab(1-42) aggregates.
[…] of 10% EtOH solution, […] of a solution of [^125I](Z)-2-(4-aminobenzylidene)-5-iodobenzofuran-3(2H)-one in 10% ethanol, and […] of a sample solution at various concentrations ([…]) were mixed. Finally, […] of Ab(1-42) aggregate solution was added thereto, and the mixture was allowed to stand at room temperature for 3 h. Ab(1-42) aggregate-bound compounds and nonbound compounds were separated with a Brandel M-24R cell harvester using a Whatman GF/B filter. Radioactivities remaining on the filter were measured with a γ-counter, and inhibition curves were created using Graph Pad Prism 4.0 to calculate inhibition constants (Ki values).
In order to calculate inhibition constants (Ki values) for various aurone derivatives synthesized, binding inhibition experiments were performed using [^125I](Z)-2-(4-aminobenzylidene)-5-iodobenzofuran-3(2H)-one as a radioactive ligand. […] Thus, aurone derivatives have shown a high binding property to amyloid aggregates. No difference in binding property resulting from the length of introduced ethyleneoxy chains was observed.

[1] = test system: senile plaques on brain sections from Tg2576 mice; assay: Fluorescence staining and immunostaining on brain sections from transgenic mice; type: binding; settings: Tg2576 mouse brain sections, FIG. 9
Procedure: As Alzheimer's disease model mouse, Tg2576 mice (20-month-old) were used. Brain tissues were removed and frozen in carboxymethyl cellulose (4%). Then, a series of sections 10 μm thick were prepared therefrom. The thus prepared sections were reacted with a ligand (a solution of Compound 26 and thioflavin in 50% EtOH) for 3 min. Then, the sections were washed with 50% EtOH (1 min×twice) and observed under a fluorescence microscope. Further, using adjacent sections, immunostaining was performed by conventional methods with anti-amyloid (3(1-42) antibody.
Fluorescence staining was performed on brain sections from Alzheimer's disease model mouse (Tg2576) utilizing the fluorescence property of Compound 26 (FIG. 9).

[2] = test system: senile plaque amyloid on hippocampal sections from Alzheimer's disease patients; assay: In vitro autoradiography and immunostaining on brain sections from Alzheimer's disease patients (Example 2); type: binding, human; settings: AD patient brain sections, FIG. 10
Procedure: Hippocampal sections (5 μm thick) from Altzheimer's disease patients were dewaxed by washing with xylene ((5 min×2) and with 100% EtOH, 100% EtOH, 95% EtOH, 85% EtOH and 70% EtOH (1 min×1 for each). After air-drying, the sections were reacted with a ligand (40% EtOH solution) for 1 h. Then, the sections were washed with saturated aqueous lithium carbonate solution in 40% EtOH (2 min×2), with 40% EtOH (2 min×2) and with water (30 sec×1), and immobilized on imaging plates for 24 h. Subsequently, the sections were analyzed with BAS2500. Further, using adjacent sections, immunostaining was performed by conventional methods with anti-amyloid β(1-42) antibody.
Autoradiography was performed on brain sections from Altzheimer's disease patients with [^125I]26 (FIG. 10).

[3] = male, ddY, mouse, in vivo, 2 min
Procedure: Animals were decapitated at 2, 10, 30 or 60 min after the injection, and the blood was collected. Then, major organs were removed, and weights and radioactivities thereof were measured.
In vivo radioactivity distribution experiments of ^125I-labeled aurone derivatives were performed using 5-week-old normal mice.

- Ki (Ab(1-42) aggregates): 1.05 ± 0.06 nM
- migration of radioactivity to the brain [3]: 2.4-4.5 % ID/g
Structure (SMILES): O=C1/C(=C/c2ccc(OCCO)cc2)Oc2ccc(I)cc21 [Compound 26, (Z)-2-(4-(2-hydroxyethoxy)benzylidene)-5-iodobenzofuran-3(2H)-one]
- fluorescence image on brain sections [1]: consistent with the fluorescence image of thioflavin S on adjacent section and the immunostaining image of anti-amyloid antibody on adjacent section
- radioactivity in autoradiography vs immunostaining [2]: observed at the positive site of immunostaining with anti-amyloid antibody
